Results published in patent US9650339B2, “Inhibitors of histone demethylases” (Gilead Sciences, Inc., priority 2013, dated 2017).

Tests used:
KDM3B (JMJD1B) = molecular target: T1, KDM3B (JMJD1B) (Homo sapiens, UniProt Q7LBC6); assay: Histone lysine demethylase AlphaLISA assay, KDM3B; assay type: biochemical; conditions: read-out: KDM3B HDME Inhibition IC50
T1 construct: 842-1761; host or cells: Bac (baculovirus system)
T1 sequence (Q7LBC6 842-1761): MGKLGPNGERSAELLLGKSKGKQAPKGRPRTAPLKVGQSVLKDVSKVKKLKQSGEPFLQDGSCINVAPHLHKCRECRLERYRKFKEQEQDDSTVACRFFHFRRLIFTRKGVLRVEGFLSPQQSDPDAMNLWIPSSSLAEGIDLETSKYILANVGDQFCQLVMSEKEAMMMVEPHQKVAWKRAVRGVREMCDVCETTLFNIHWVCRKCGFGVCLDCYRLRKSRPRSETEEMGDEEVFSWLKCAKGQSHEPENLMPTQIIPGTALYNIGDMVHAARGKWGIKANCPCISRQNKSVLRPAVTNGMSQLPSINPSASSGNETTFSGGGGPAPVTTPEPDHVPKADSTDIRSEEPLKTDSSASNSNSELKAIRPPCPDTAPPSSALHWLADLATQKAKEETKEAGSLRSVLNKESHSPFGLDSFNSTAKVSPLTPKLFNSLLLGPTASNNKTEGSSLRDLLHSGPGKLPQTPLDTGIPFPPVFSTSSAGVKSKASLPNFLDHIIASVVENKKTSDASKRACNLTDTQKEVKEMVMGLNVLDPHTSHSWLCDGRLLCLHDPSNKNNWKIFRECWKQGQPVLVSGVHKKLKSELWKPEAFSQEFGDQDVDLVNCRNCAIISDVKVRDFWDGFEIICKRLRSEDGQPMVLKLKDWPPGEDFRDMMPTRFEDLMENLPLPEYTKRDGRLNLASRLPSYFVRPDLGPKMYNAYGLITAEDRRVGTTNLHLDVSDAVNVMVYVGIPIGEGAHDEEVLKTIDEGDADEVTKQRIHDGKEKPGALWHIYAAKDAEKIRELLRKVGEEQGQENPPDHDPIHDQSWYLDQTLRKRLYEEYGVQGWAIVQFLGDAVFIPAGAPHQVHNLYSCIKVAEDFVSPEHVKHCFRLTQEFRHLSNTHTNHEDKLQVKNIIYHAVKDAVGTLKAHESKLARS
Summary of the method: (§1)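 AlphaLISA demethylation readout: enzyme preincubated 10 min, then 10 min with compounds in 3% DMSO buffer, before biotinylated methyl-lysine histone peptide substrate with 25 μM L-Asc and 10 μM α-KG, room temperature. Acceptor beads then streptavidin donor beads added, dark incubation, plates read.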

KDM4A (JMJD2A) = molecular target: T2, KDM4A (JMJD2A) (Homo sapiens, UniProt O75164); assay: Histone lysine demethylase AlphaLISA assay, KDM4A; assay type: biochemical; conditions: read-out: KDM4A HDME Inhibition IC50
T2 construct: 1-350; purchased BPS Bioscience, US; host or cells: E. coli
T2 sequence (O75164 1-350): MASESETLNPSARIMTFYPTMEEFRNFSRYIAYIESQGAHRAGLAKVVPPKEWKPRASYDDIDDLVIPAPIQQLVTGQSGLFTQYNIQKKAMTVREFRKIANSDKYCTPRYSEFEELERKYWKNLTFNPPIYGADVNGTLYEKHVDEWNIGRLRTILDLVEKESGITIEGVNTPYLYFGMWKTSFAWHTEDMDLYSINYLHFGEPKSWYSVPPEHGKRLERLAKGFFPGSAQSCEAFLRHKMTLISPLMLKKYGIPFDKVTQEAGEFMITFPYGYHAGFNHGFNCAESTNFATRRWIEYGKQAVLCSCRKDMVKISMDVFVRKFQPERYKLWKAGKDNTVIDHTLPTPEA
Summary of the method: as §1

Row | IC50 (KDM3B (JMJD1B)) [nM] | IC50 (KDM4A (JMJD2A)) [nM] | Structure (SMILES)
1 | > 2500 | < 250 | COc1ccccc1CN1CCC(NC(=O)CNCc2cc(CNC3CC3)ccn2)CC1 [Compound 20, 2-[({4-[(cyclopropylamino)-methyl]pyridin-2-yl}methyl)amino]-N-{1-[(2-methoxyphenyl)methyl]-piperidin-4-yl}acetamide]
2 | > 2500 | > 2500 | CN(C)CCCCNCc1cc(CN)ccn1 [Compound 2, [2-({[4-(dimethylamino)butyl]-amino}methyl)pyridin-4-yl]methanamine]
3 | > 2500 | > 2500 | CN(C)CCNCc1ccnc(CNCCCN(C)Cc2ccccc2)c1 [Compound 18, benzyl[3-({[4-({[2-(dimethylamino)ethyl]-amino}methyl)pyridin-2-yl]methyl}-amino)propyl]-methylamine]
4 | > 2500 | 250 to 2500 | O=Cc1ccnc(CNCC(=O)NC2CCN(Cc3ccccc3)C2)c1 (centres unmarked) [Compound 113, N-(1-benzylpyrrolidin-3-yl)-2-{[(4-formylpyridin-2-yl)methyl]amino}-acetamide]

The remaining lines, values behind:

Row | Structure (SMILES) | IC50 (KDM3B (JMJD1B)) [nM] | IC50 (KDM4A (JMJD2A)) [nM]
5 | COC(=O)CNCc1cc(/C=N/C2CC2)ccn1 [Compound 59, methyl 2-[({4-[N-cyclopropyl-carboximidoyl]pyridin-2-yl}methyl)amino]-acetate] | > 2500 | 250 to 2500
6 | O=Cc1ccnc(CNCCCCN(Cc2ccccc2)C2CC2)c1 [Compound 109, 2-[({4-[benzyl-(cyclopropyl)amino]-butyl}amino)methyl]-pyridine-4-carbaldehyde] | > 2500 | > 2500
7 | COCCNCc1ccnc(CNCCCN(C)Cc2ccccc2)c1 [Compound 19, benzyl(3-{[(4-{[(2-methoxyethyl)amino]-methyl}pyridin-2-yl)methyl]amino}-propyl)methylamine] | > 2500 | > 2500
